Experimental data: the supplement of paper PMC10307832

Columns and labels:
Experiment in all cases: relative viability (nuclei count vs DMSO), 5 days (fraction); higher = more cells survive
H3255 = system: H3255
Summary of the method: (§1)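 Lung cancer cell lines were pin-tool dosed in 1536-well plates on the day after seeding, with either a lone drug or a fixed anchor-drug dose plus five library-drug doses (not always all listed) in √10 steps. Nuclei were counted on 4× images after 5 days. Relative viability is the ratio of treated-well to vehicle-well nuclei counts, with each value a median of duplicate plates.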

LCLC-97TM1 = system: LCLC-97TM1
Summary of the method: as §1

NCI-H1993 = system: NCI-H1993
Summary of the method: as §1

NCI-H661 = system: NCI-H661
Summary of the method: as §1

NCI-H2085 = system: NCI-H2085
Summary of the method: as §1

NCI-H2023 = system: NCI-H2023
Summary of the method: as §1

NCI-H1915 = system: NCI-H1915
Summary of the method: as §1

EPLC-272H = system: EPLC-272H
Summary of the method: as §1

HOP-62 = system: HOP-62
Summary of the method: as §1

NCI-H2126 = system: NCI-H2126
Summary of the method: as §1

NCI-H2347 = system: NCI-H2347
Summary of the method: as §1

EMC-BAC-2 = system: EMC-BAC-2
Summary of the method: as §1

SW 1573 = system: SW 1573
Summary of the method: as §1

LXF-289 = system: LXF-289
Summary of the method: as §1

PC-14 = system: PC-14
Summary of the method: as §1

NCI-H2009 = system: NCI-H2009
Summary of the method: as §1

NCI-H1734 = system: NCI-H1734
Summary of the method: as §1

NCI-H647 = system: NCI-H647
Summary of the method: as §1

NCI-H322M = system: NCI-H322M
Summary of the method: as §1

NCI-H727 = system: NCI-H727
Summary of the method: as §1

NCI-H1563 = system: NCI-H1563
Summary of the method: as §1

SK-LU-1 = system: SK-LU-1
Summary of the method: as §1

In the case of `COc1cc2nccc(Oc3ccc(NC(=O)Nc4cc(C)on4)c(Cl)c3)c2cc1OC` [Tivozanib] + N=C(N)NC(=N)NCCc1ccccc1 [Phenformin] (partner 250 µM), the relative viability (H3255; first compound 0.005 µM) is reported as 0.332, the relative viability (H3255; first compound 0.01581 µM) is reported as 0.333 and the relative viability (H3255; first compound 0.05 µM) is reported as 0.354. The relative viability (H3255; first compound 0.1581 µM) was 0.339, the relative viability (H3255; first compound 0.5 µM) was 0.351 and the relative viability (LCLC-97TM1; first compound 0.005 µM) was 0.423. It also gave a relative viability (LCLC-97TM1; first compound 0.01581 µM) of 0.49, a relative viability (LCLC-97TM1; first compound 0.05 µM) of 0.417 and a relative viability (LCLC-97TM1; first compound 0.1581 µM) of 0.473. The relative viability (LCLC-97TM1; first compound 0.5 µM) was 0.395, the relative viability (NCI-H1993; first compound 0.005 µM) was 0.503 and the relative viability (NCI-H1993; first compound 0.01581 µM) was 0.507. For the same compound, the relative viability (NCI-H1993; first compound 0.05 µM) was 0.51, the relative viability (NCI-H1993; first compound 0.1581 µM) was 0.558 and the relative viability (NCI-H1993; first compound 0.5 µM) was 0.52. It also gave a relative viability (NCI-H661; first compound 0.005 µM) of 0.264, a relative viability (NCI-H661; first compound 0.01581 µM) of 0.277 and a relative viability (NCI-H661; first compound 0.05 µM) of 0.277. The relative viability (NCI-H661; first compound 0.1581 µM) was 0.278, the relative viability (NCI-H661; first compound 0.5 µM) was 0.249 and the relative viability (NCI-H2085; first compound 0.005 µM) was 0.652. It also gave a relative viability (NCI-H2085; first compound 0.01581 µM) of 0.723, a relative viability (NCI-H2085; first compound 0.05 µM) of 0.711 and a relative viability (NCI-H2085; first compound 0.1581 µM) of 0.62. The relative viability (NCI-H2085; first compound 0.5 µM) was 0.673, the relative viability (NCI-H2023; first compound 0.005 µM) was 0.408 and the relative viability (NCI-H2023; first compound 0.01581 µM) was 0.421. The relative viability (NCI-H2023; first compound 0.05 µM) was 0.426, the relative viability (NCI-H2023; first compound 0.1581 µM) was 0.43 and the relative viability (NCI-H2023; first compound 0.5 µM) was 0.377. For the same compound, the relative viability (NCI-H1915; first compound 0.005 µM) was 0.365, the relative viability (NCI-H1915; first compound 0.01581 µM) was 0.388 and the relative viability (NCI-H1915; first compound 0.05 µM) was 0.317. It also gave a relative viability (NCI-H1915; first compound 0.1581 µM) of 0.373, a relative viability (NCI-H1915; first compound 0.5 µM) of 0.309 and a relative viability (EPLC-272H; first compound 0.005 µM) of 0.271. It also gave a relative viability (EPLC-272H; first compound 0.01581 µM) of 0.355, a relative viability (EPLC-272H; first compound 0.05 µM) of 0.359 and a relative viability (EPLC-272H; first compound 0.1581 µM) of 0.314. It also gave a relative viability (EPLC-272H; first compound 0.5 µM) of 0.239, a relative viability (HOP-62; first compound 0.005 µM) of 0.611 and a relative viability (HOP-62; first compound 0.01581 µM) of 0.626. For the same compound, the relative viability (HOP-62; first compound 0.05 µM) was 0.66, the relative viability (HOP-62; first compound 0.1581 µM) was 0.704 and the relative viability (HOP-62; first compound 0.5 µM) was 0.714. It also gave a relative viability (NCI-H2126; first compound 0.005 µM) of 0.486, a relative viability (NCI-H2126; first compound 0.01581 µM) of 0.546 and a relative viability (NCI-H2126; first compound 0.05 µM) of 0.553. For the same compound, the relative viability (NCI-H2126; first compound 0.1581 µM) was 0.516, the relative viability (NCI-H2126; first compound 0.5 µM) was 0.528 and the relative viability (NCI-H2347; first compound 0.01581 µM) was 0.484. For the same compound, the relative viability (NCI-H2347; first compound 0.05 µM) was 0.512, the relative viability (NCI-H2347; first compound 0.5 µM) was 0.438 and the relative viability (EMC-BAC-2; first compound 0.005 µM) was 0.48. It also gave a relative viability (EMC-BAC-2; first compound 0.01581 µM) of 0.519, a relative viability (EMC-BAC-2; first compound 0.05 µM) of 0.51 and a relative viability (EMC-BAC-2; first compound 0.1581 µM) of 0.428. The relative viability (EMC-BAC-2; first compound 0.5 µM) was 0.441, the relative viability (SW 1573; first compound 0.005 µM) was 0.361 and the relative viability (SW 1573; first compound 0.01581 µM) was 0.362. The relative viability (SW 1573; first compound 0.05 µM) was 0.369, the relative viability (SW 1573; first compound 0.1581 µM) was 0.306 and the relative viability (SW 1573; first compound 0.5 µM) was 0.386. The relative viability (LXF-289; first compound 0.005 µM) was 0.532, the relative viability (LXF-289; first compound 0.01581 µM) was 0.506 and the relative viability (LXF-289; first compound 0.05 µM) was 0.514. For the same compound, the relative viability (LXF-289; first compound 0.1581 µM) was 0.561, the relative viability (LXF-289; first compound 0.5 µM) was 0.418 and the relative viability (PC-14; first compound 0.005 µM) was 0.443. The relative viability (PC-14; first compound 0.01581 µM) was 0.656, the relative viability (PC-14; first compound 0.05 µM) was 0.588 and the relative viability (PC-14; first compound 0.1581 µM) was 0.611. The relative viability (PC-14; first compound 0.5 µM) was 0.501, the relative viability (NCI-H2009; first compound 0.005 µM) was 0.448 and the relative viability (NCI-H2009; first compound 0.01581 µM) was 0.473. It also gave a relative viability (NCI-H2009; first compound 0.05 µM) of 0.453, a relative viability (NCI-H2009; first compound 0.1581 µM) of 0.478 and a relative viability (NCI-H2009; first compound 0.5 µM) of 0.344. It also gave a relative viability (NCI-H1734; first compound 0.005 µM) of 0.343, a relative viability (NCI-H1734; first compound 0.01581 µM) of 0.365 and a relative viability (NCI-H1734; first compound 0.05 µM) of 0.371. It also gave a relative viability (NCI-H1734; first compound 0.1581 µM) of 0.362, a relative viability (NCI-H1734; first compound 0.5 µM) of 0.383 and a relative viability (NCI-H647; first compound 0.005 µM) of 0.538. For the same compound, the relative viability (NCI-H647; first compound 0.01581 µM) was 0.457, the relative viability (NCI-H647; first compound 0.05 µM) was 0.473 and the relative viability (NCI-H647; first compound 0.1581 µM) was 0.469. For the same compound, the relative viability (NCI-H647; first compound 0.5 µM) was 0.497, the relative viability (NCI-H322M; first compound 0.005 µM) was 0.721 and the relative viability (NCI-H322M; first compound 0.01581 µM) was 0.82. For the same compound, the relative viability (NCI-H322M; first compound 0.05 µM) was 0.776, the relative viability (NCI-H322M; first compound 0.1581 µM) was 0.689 and the relative viability (NCI-H322M; first compound 0.5 µM) was 0.655. For the same compound, the relative viability (NCI-H727; first compound 0.005 µM) was 0.664, the relative viability (NCI-H727; first compound 0.01581 µM) was 0.489 and the relative viability (NCI-H727; first compound 0.05 µM) was 0.439. It also gave a relative viability (NCI-H727; first compound 0.1581 µM) of 0.403, a relative viability (NCI-H727; first compound 0.5 µM) of 0.558 and a relative viability (NCI-H1563; first compound 0.005 µM) of 0.602. The relative viability (NCI-H1563; first compound 0.01581 µM) was 0.634, the relative viability (NCI-H1563; first compound 0.05 µM) was 0.696 and the relative viability (NCI-H1563; first compound 0.1581 µM) was 0.735. The relative viability (NCI-H1563; first compound 0.5 µM) was 0.666, the relative viability (SK-LU-1; first compound 0.005 µM) was 0.58 and the relative viability (SK-LU-1; first compound 0.01581 µM) was 0.549. The relative viability (SK-LU-1; first compound 0.05 µM) was 0.629, the relative viability (SK-LU-1; first compound 0.1581 µM) was 0.376 and the relative viability (SK-LU-1; first compound 0.5 µM) was 0.532.
